Data taken from paper PMC5384001 (Scientific Reports, 2017).
Where a chain is given by its changes, count along the chain named. Where “and” joins values, the source holds several entries; their conditions need not be identical. Equal entries are not always repeated.

What was measured:
[1] = target: T1, GluD2-Lc-(H)GluN1 (Rattus norvegicus, UniProt Q63226, A654T/A766F/D542Y/D767R/N763E/R768S/S544G/T764L/V761T/V765F/Y543Q); assay: Two-electrode voltage clamp in Xenopus oocytes, inhibition of spontaneous currents; format: cell-based
T1 construct: the function of full-length receptors as well, we introduced them into the GluD2 lurcher mutant (GluD2-Lc); expressed in transfected cells; host or cells: Xenopus laevis oocytes injected with cRNA
T1 sequence (Q63226 24-1007 D542Y/Y543Q/S544G/A654T/V761T/N763E/T764L/V765F/A766F/D767R/R768S): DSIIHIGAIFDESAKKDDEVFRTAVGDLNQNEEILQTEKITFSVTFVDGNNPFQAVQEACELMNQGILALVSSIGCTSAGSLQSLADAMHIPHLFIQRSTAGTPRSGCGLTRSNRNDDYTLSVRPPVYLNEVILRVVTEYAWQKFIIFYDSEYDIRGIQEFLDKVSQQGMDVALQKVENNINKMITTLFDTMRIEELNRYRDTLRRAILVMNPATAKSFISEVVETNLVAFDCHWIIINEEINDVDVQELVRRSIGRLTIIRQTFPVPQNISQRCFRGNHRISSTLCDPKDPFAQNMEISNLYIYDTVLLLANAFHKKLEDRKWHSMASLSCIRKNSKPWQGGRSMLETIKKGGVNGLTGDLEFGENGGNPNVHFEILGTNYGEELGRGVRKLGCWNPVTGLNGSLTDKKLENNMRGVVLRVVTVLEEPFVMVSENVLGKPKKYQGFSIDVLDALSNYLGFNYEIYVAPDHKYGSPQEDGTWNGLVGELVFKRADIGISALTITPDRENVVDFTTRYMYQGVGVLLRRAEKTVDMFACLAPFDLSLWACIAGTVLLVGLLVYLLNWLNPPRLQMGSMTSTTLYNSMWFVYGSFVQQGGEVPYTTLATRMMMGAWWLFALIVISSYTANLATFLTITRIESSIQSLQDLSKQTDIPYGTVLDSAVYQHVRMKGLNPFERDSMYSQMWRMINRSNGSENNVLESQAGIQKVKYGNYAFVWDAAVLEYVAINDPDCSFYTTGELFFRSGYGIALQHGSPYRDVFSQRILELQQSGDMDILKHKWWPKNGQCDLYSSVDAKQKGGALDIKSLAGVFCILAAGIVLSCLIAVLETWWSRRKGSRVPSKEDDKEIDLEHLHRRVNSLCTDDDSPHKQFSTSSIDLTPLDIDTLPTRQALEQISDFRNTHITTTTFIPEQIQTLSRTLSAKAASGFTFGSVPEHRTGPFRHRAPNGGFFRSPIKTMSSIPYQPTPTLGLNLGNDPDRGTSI
Excerpt: (§1) All cDNAs for expression in Xenopus oocytes were cloned into the vector pSGEM[30]. Point mutants of GluD2-Lc were constructed by overlap extension PCR with mutagenic oligonucleotide primers. The GluD2-Lc-(H)GluN1 chimera was constructed by transferring the S1- and S2-encoding sequences from GluD2-LBD-(H)GluN1 to GluD2-Lc via overlap extension PCR using tail primers. The S1 and S2 sequences were transferred separately, yielding GluD2-Lc-(HS1)GluN1 and GluD2-Lc-(HS2)GluN1 constructs. GluD2-Lc-(H)GluN1 was then produced from these by another overlap extension PCR. Complementary RNA (cRNA) for injection into oocytes was synthesised from 1 μg of linearised template DNA with the mMESSAGE mMACHINE in vitro transcription kit (Ambion, Austin, TX, USA).
(§2) Oocytes were obtained by surgically removing parts of the ovaries from Xenopus laevis (Nasco, Fort Atkinson, WI, USA) anaesthetised with 1.5 g/L 3-aminobenzoic acid ethylester (Sigma, Taufkirchen, Germany). […] Oocytes were injected with 11 ng cRNA (10 ng of each cRNA for co-expression of GluN1 and GluN2A) using a nanoliter injector (WPI, Sarasota, FL, USA). Four days after cRNA injection, current responses were recorded under voltage clamp at –70 mV with a Turbo Tec-10CD amplifier (npi electronic, Tamm, Germany) controlled by Patchmaster software (HEKA, Lambrecht, Germany). Currents were filtered with a 20 Hz low-pass filter and then digitised with a sampling rate of 50 Hz. Recording electrodes were pulled from borosilicate glass (Hilgenberg, Malsfeld, Germany) with an L/M-3P-A vertical pipette puller (List-Medical), filled with 3 M KCl, and had resistances of 0.5–5 MΩ (voltage electrode) or 0.5–1.5 MΩ (current electrode). Recordings were performed in a 50 μL chamber under constant superfusion with extracellular solution at a flow rate of 3–5 mL/min. […] Finally, Ba-NFR and then NMDGR were applied again to check for reversibility.

[2] = target: T2, GluD2-Lc(S544G)-(HS2)GluN1 (Rattus norvegicus, UniProt Q63226, A654T/A766F/D767R/N763E/R768S/S544G/T764L/V761T/V765F); assay: as above; format: cell-based; details: fraction of spontaneous current inhibited by saturating D-serine
T2 construct: the function of full-length receptors as well, we introduced them into the GluD2 lurcher mutant (GluD2-Lc); expressed in transfected cells; host or cells: Xenopus laevis oocytes injected with cRNA
T2 sequence (Q63226 24-1007 S544G/A654T/V761T/N763E/T764L/V765F/A766F/D767R/R768S): T1 sequence (Q63226 24-1007 D542Y/Y543Q/S544G/A654T/V761T/N763E/T764L/V765F/A766F/D767R/R768S) with Y519D, Q520Y
Excerpt: as §1, §2

N[C@H](CO)C(=O)O [D-serine]
D-serine concentration of maximum inhibition of spontaneous currents ([1]; bell-shaped concentration–response curve): 10 µM | D-serine efficacy Mean ± SEM ([1]; fraction of spontaneous current inhibited by saturating D-serine): 13% and 12.9 ± 0.8% | maximal, absolute, D-serine-induced steady-state inhibition of spontaneous currents ([1]; n = 30): 53 ± 8 nA | D-serine efficacy Mean ± SEM [2]: 40.6 ± 0.5%
